Source: patent US9440957B2, “Compounds and compositions for modulating EGFR Activity” (Novartis AG, priority 2012, dated 2016)
Where two headings read alike, the source gives them in different places.

Experiments:
[1] = target: H3255 (EGFR L858R) (Homo sapiens, UniProt P00533, L858R); assay: EGFR target modulation in H3255 cell line (phospho-EGFR Y1173 ELISA); type: cell-based
Procedure, shortened: (§1)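 Cells grown in 10% FBS/RPMI, plated overnight at 37 °C, then treated with serially diluted compounds for 3 h. Lysates were analysed by sandwich ELISA (anti-EGFR capture, chemiluminescent readout).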

[2] = target: HaCaT (EGFR WT) (Homo sapiens, UniProt P00533); assay: EGFR target modulation in HaCaT (EGFR-WT) cell line (phospho-EGFR Y1173 ELISA); type: cell-based; settings: value in parentheses
Description: EGFR Target Modulation in HaCaT (EGFR-WT) Cell Line Tissue Culture. […] The serial diluted compounds were transferred to the plate containing cells by using a 50 nl Pin Head device (Perkin Elmer) and the cells were placed back in the incubator for 3 hours. […] Phospho-EGFR ([…]) ELISA. Solid white high-binding ELISA plates (Greiner #781074) were coated with 5 ug/ml anti-EGFR capture antibody (R&D Systems #AF231) overnight in 50 mM carbonate/bicarbonate pH 9.5 buffer. […] Wash steps were carried out with a Bio-Tek ELx405 SelectTM using 4 cycles of 100 ul TBS-T (20 mM Tris, 137 mM NaCl, 0.05% Tween-20) per well. […] Lysis was allowed to occur for 20 minutes on ice. A 25 ul aliquot was added to each well of the blocked ELISA plate and incubated overnight at 4° C. with gentle shaking. […] After washing, 1:2,000 anti-rabbit-HRP (Cell Signaling #7074) in 0.2% BSA/TBS-T was added and incubated for 1 hour at room temperature. Chemiluminescent detection was carried out with SuperSignal ELISA Pico substrate (ThermoScientific #37069). Signal was read on EnVision plate reader using built-in UltraLUM setting. Data Analysis. Control cells treated with EGF were set to 100% maximum response. […] With these parameters, the IC50's for each compound in each cell line was calculated using non-linear curve fitting analysis.

[3] = target: T1, EGFR(L858R/T790M) (Homo sapiens, UniProt P00533, L858R/T790M); assay: EGFR biochemical assay (HTRF), IC50 determinations
T1 construct: purchased from Carna (GST-a.a. 669-1210)
Procedure, shortened: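 HTRF kinase reaction with biotin-TK peptide at room temperature, quenched with EDTA at 60 min and detected with PT66K/SAXL after 1 h. Without preincubation, enzyme starts the reaction with compound, ATP and peptide present. With preincubation, compound, enzyme and peptide sit at room temperature for a set time before ATP is added.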

[4] = target: H1975 (EGFR L858/T790M) (Homo sapiens, UniProt P00533, L858R/T790M); assay: EGFR target modulation in H1975 cell line (phospho-EGFR Y1173 ELISA); type: cell-based
Procedure, shortened: as §1

[5] = target: HCC827 (Del E746-A750) (Homo sapiens, UniProt P00533, DEL746-750); assay: EGFR target modulation in HCC827 cell line (phospho-EGFR Y1173 ELISA); type: cell-based
Description: EGFR Target Modulation in H1975, H3255 and HCC827 Cell Lines Tissue Culture. Cells were maintained in 10% FBS/RPMI supplemented with 100 μg/ml Penicillin/Streptomycin (Hyclone #SH30236.01). […] The cells were allowed to incubate overnight in a 37° C., 5% CO2 humidified tissue culture incubator. […] The serial diluted compounds were transferred to the plate containing cells by using a 50 nl Pin Head device (Perkin Elmer) and the cells were placed back in the incubator for 3 hours. Phospho-EGFR ([…]) Target Modulation Assay. The media was reduced to 20 ul using a Bio-Tek ELx 405 SelectTM plate washer. […] The plates were shaken at 4° C. for 20 minutes. An aliquot of 25 ul from each well was transferred to pEGFR(Y1173) ELISA plates for analysis. Phospho-EGFR ([…]) ELISA. Solid white high-binding ELISA plates (Greiner #781074) were coated with 5 ug/ml anti-EGFR capture antibody (R&D Systems #AF231) overnight in 50 mM carbonate/bicarbonate pH 9.5 buffer. Plates were blocked with 1% BSA (Sigma #A7030) in PBS for 1 hour at room temperature. Wash steps were carried out with a Bio-Tek ELx405 SelectTM using 4 cycles of 100 ul TBS-T (20 mM Tris, 137 mM NaCl, 0.05% Tween-20) per well. […] Lysis was allowed to occur for 20 minutes on ice. A 25 ul aliquot was added to each well of the blocked ELISA plate and incubated overnight at 4° C. with gentle shaking. […] After washing, 1:2,000 anti-rabbit-HRP (Cell Signaling #7074) in 0.2% BSA/TBS-T was added and incubated for 1 hour at room temperature. Chemiluminescent detection was carried out with SuperSignal ELISA Pico substrate (ThermoScientific #37069). Signal was read on EnVision plate reader using built-in UltraLUM setting. Data Analysis. Control cells treated with EGF were set to 100% maximum response. […] With these parameters, the IC50's for each compound in each cell line was calculated using non-linear curve fitting analysis.

[6] = target: human EGFR WT (NIH/3T3 cells, EGF-induced) (Homo sapiens, UniProt P00533); assay: EGFR target modulation in engineered NIH/3T3 cell lines (phospho-EGFR Y1068 AlphaLISA), EGFR WT; type: cell-based; settings: engineered NIH/3T3 cells, read-out: NIH3T3 IC50 (μM) EGFR (WT)
Procedure, shortened: (§2)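 Engineered NIH/3T3 cells expressing EGFR variants treated 3 h at 37 °C with 12-point 1:3 compound series (top stock 10 μM); only WT cells stimulated with 50 ng/ml EGF for 5 min before lysis. Phospho-Y1068 measured by AlphaLISA with total-EGFR antibody; IC50 from non-linear fitting.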

[7] = target: human EGFR L858R/T790M (NIH/3T3 cells) (Homo sapiens, UniProt P00533, L858R/T790M); assay: EGFR target modulation in engineered NIH/3T3 cell lines (phospho-EGFR Y1068 AlphaLISA), EGFR L858R/T790M; type: cell-based; settings: engineered NIH/3T3 cells, read-out: NIH3T3 IC50 (μM) EGFR (L858R/T790M)
Procedure, shortened: as §2

[8] = target: human EGFR L858R (NIH/3T3 cells) (Homo sapiens, UniProt P00533, L858R); assay: EGFR target modulation in engineered NIH/3T3 cell lines (phospho-EGFR Y1068 AlphaLISA), EGFR L858R; type: cell-based; settings: engineered NIH/3T3 cells, read-out: NIH3T3 IC50 (μM) EGFR (L858R)
Procedure, shortened: as §2

[9] = target: HEKn (EGFR WT) (Homo sapiens, UniProt P00533); assay: EGFR target modulation in HEKn (EGFR-WT) cell line (phospho-EGFR Y1173 ELISA); type: cell-based; settings: value outside parentheses
Procedure, shortened: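 Primary neonatal human keratinocytes (EGFR WT) were exposed to serially diluted compounds for 3 h, then lysed on ice. Phospho-EGFR Y1173 was measured by chemiluminescent sandwich ELISA using anti-EGFR capture.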

[10] = EGFR (L858R/T790M) with 90 min pre-incubation, read-out: IC50 (μM) Column B
[11] = EGFR (L858R/T790M) with no pre-incubation, read-out: IC50 (μM) Column A

Sequence of HCC827 (Del E746-A750) (P00533 with tags, fused parts or gaps DEL746-750): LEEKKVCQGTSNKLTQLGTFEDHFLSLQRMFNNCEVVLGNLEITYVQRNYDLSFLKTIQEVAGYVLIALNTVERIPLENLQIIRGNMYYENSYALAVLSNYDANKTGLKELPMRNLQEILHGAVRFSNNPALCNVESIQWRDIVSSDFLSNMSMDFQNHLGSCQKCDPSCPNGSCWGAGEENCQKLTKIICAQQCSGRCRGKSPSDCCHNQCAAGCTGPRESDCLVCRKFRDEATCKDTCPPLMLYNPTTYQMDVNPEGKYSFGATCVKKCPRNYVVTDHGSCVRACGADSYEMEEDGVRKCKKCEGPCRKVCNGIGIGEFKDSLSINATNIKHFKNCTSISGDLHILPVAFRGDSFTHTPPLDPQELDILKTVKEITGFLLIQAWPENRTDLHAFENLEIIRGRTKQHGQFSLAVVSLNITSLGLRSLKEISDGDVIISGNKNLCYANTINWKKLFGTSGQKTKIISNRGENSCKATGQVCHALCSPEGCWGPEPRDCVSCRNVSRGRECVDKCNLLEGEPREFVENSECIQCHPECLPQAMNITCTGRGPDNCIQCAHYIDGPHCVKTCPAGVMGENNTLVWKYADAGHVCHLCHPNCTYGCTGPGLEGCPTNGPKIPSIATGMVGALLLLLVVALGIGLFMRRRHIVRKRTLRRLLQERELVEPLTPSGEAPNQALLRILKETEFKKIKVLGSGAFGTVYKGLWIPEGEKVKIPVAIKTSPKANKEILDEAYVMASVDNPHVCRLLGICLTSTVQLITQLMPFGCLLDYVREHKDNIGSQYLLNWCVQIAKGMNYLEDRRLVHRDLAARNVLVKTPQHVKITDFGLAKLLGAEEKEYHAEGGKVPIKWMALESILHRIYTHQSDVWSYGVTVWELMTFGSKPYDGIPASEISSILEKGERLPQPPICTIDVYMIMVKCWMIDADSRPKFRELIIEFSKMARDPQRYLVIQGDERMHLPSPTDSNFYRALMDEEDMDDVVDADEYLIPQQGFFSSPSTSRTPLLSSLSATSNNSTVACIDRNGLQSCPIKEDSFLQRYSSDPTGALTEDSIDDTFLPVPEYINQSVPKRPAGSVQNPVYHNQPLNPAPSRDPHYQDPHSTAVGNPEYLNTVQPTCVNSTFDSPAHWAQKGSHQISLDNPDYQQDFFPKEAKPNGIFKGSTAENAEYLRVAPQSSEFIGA
Sequence of human EGFR L858R/T790M (NIH/3T3 cells) (P00533 25-1210 T790M/L858R): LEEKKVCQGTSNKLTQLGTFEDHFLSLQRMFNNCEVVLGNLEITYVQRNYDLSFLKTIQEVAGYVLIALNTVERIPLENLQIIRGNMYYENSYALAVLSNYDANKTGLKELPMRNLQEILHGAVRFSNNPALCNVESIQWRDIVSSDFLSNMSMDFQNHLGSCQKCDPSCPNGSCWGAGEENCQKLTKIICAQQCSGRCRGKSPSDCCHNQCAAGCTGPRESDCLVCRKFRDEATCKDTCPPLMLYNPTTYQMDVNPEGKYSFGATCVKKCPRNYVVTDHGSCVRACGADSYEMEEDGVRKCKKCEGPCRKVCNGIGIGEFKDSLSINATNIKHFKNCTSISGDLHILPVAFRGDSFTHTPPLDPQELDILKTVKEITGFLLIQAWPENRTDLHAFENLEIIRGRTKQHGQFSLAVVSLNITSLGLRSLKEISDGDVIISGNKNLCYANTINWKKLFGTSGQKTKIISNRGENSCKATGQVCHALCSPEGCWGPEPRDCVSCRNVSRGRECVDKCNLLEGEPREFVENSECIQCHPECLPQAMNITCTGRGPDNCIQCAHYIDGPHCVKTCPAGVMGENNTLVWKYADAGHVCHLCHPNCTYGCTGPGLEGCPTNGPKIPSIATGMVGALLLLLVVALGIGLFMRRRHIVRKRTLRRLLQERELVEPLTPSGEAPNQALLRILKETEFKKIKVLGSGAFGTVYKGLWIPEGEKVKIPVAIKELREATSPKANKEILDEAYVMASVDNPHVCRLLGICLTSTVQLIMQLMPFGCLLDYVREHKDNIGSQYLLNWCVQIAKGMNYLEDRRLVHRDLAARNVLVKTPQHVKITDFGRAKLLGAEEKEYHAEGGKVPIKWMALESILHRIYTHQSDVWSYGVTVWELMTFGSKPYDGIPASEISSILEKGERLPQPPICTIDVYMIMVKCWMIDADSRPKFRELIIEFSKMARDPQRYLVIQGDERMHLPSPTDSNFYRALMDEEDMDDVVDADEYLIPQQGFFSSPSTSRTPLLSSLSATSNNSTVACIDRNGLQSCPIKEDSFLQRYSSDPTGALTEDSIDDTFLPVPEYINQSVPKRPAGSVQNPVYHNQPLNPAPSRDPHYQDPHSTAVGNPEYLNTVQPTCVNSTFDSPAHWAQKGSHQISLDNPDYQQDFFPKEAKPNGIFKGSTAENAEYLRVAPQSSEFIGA
Sequence of H1975 (EGFR L858/T790M) (P00533 25-1210 T790M/L858R): as above
T1 sequence (P00533 669-1210 T790M/L858R): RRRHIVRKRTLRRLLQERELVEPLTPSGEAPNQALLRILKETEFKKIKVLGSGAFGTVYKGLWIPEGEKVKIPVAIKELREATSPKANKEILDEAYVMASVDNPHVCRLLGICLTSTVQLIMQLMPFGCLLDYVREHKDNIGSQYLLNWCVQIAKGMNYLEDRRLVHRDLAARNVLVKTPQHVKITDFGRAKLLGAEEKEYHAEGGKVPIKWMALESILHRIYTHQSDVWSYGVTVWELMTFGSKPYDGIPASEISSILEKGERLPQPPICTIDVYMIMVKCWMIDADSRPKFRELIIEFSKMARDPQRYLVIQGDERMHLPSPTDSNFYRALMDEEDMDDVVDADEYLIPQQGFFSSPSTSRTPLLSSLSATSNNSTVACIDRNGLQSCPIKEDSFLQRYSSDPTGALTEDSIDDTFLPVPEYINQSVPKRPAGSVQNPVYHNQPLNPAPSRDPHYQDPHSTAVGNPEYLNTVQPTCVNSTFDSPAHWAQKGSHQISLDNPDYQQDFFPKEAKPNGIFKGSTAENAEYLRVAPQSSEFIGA

An IC50 [1] of 71 nM, an IC50 [2] of 2060 nM and an IC50 [3, 10] of 0.009 µM were found for `C=CC(=O)N1CCN(C(C)=O)CC(n2c(NC(=O)c3ccnc(C)c3)nc3cccc(Cl)c32)C1` (centres unmarked) [Example 14, N-(1-(1-acetyl-4-acryloyl-1,4-diazepan-6-yl)-7-chloro-1H-benzo[d]imidazol-2-yl)-2-methylisonicotinamide] in this work. It also gave an IC50 [3, 11] of 0.16 µM and an IC50 [4] of 27 nM.

An IC50 [5] of 291 nM, an IC50 [6] of over 10 µM and an IC50 [1] of 199 nM were found for `C=CC(=O)N1CCC[C@@H](n2c(NC(=O)c3cccc(C(F)(F)F)c3)nc3cc(COCC)ccc32)C1` [Example 17-123] in this work. The IC50 [3, 10] was 0.004 µM, the IC50 [3, 11] was 0.115 µM and the IC50 [7] was 0.017 µM. The IC50 [8] was 0.174 µM, the IC50 [4] was 22 nM and the IC50 [9] was over 10000 nM.

An IC50 [5] of under 1 nM, an IC50 [6] of 0.024 µM and an IC50 [1] of 2 nM were found for `C=CC(=O)N1CCCC[C@@H](n2c(NC(=O)c3ccnc(C)c3)nc3cc(CN4CCCC4)cc(C)c32)C1` [Example 17-126] in this work. The IC50 [3, 10] was under 0.001 µM, the IC50 [3, 11] was 0.001 µM and the IC50 [7] was under 0.001 µM. The IC50 [8] was under 0.001 µM, the IC50 [4] was under 1 nM and the IC50 [9] was 65 nM.

An IC50 [5] of under 1 nM, an IC50 [6] of 0.029 µM and an IC50 [1] of 1 nM were found for `C=CC(=O)N1CCCC[C@@H](n2c(NC(=O)c3ccnc(C)c3)nc3cc(CN4CCCCC4)cc(C)c32)C1` [Example 17-144] in this work. For the same compound, the IC50 [3, 10] was under 0.001 µM, the IC50 [3, 11] was 0.002 µM and the IC50 [7] was under 0.001 µM. For the same compound, the IC50 [8] was under 0.001 µM, the IC50 [4] was under 1 nM and the IC50 [9] was 72 nM.

An IC50 [5] of under 1 nM, an IC50 [6] of 0.026 µM and an IC50 [1] of 2 nM were found for `C=CC(=O)N1CCCC[C@@H](n2c(NC(=O)c3ccnc(C)c3)nc3cc(CN4CCC4)cc(C)c32)C1` [Example 17-145] in this work. The IC50 [3, 10] was under 0.001 µM, the IC50 [3, 11] was 0.001 µM and the IC50 [7] was 0.001 µM. For the same compound, the IC50 [8] was under 0.001 µM, the IC50 [4] was 1 nM and the IC50 [9] was 95 nM.

An IC50 [5] of under 1 nM, an IC50 [6] of 0.014 µM and an IC50 [1] of 1 nM were found for `C=CC(=O)N1CCCC[C@@H](n2c(NC(=O)c3ccnc(C)c3)nc3cc(CN4CCC(F)(F)C4)cc(C)c32)C1` [Example 17-151] in this work. The IC50 [3, 10] was under 0.001 µM, the IC50 [3, 11] was 0.001 µM and the IC50 [7] was 0.001 µM. It also gave an IC50 [8] of under 0.001 µM, an IC50 [4] of under 1 nM and an IC50 [9] of 36 nM.

An IC50 [5] of under 1 nM, an IC50 [6] of 0.037 µM and an IC50 [1] of 2 nM were found for `C=CC(=O)N1CCCC[C@@H](n2c(NC(=O)c3ccnc(C)c3)nc3cc(CN4CC(F)(F)C4)cc(C)c32)C1` [Example 17-153] in this work. The IC50 [3, 10] was under 0.001 µM, the IC50 [3, 11] was 0.002 µM and the IC50 [7] was 0.001 µM. For the same compound, the IC50 [8] was 0.001 µM, the IC50 [4] was under 1 nM and the IC50 [9] was 61 nM.

An IC50 [5] of under 1 nM, an IC50 [6] of 0.065 µM and an IC50 [1] of 2 nM were found for `C=CC(=O)N1CCCC[C@@H](n2c(NC(=O)c3ccnc(C)c3)nc3cc(CN4CCS(=O)(=O)CC4)cc(C)c32)C1` [Example 17-155] in this work. For the same compound, the IC50 [3, 10] was under 0.001 µM, the IC50 [3, 11] was 0.002 µM and the IC50 [7] was 0.002 µM. The IC50 [8] was 0.002 µM, the IC50 [4] was 2 nM and the IC50 [9] was 61 nM.
